{"source": "patent US11767316B2", "about": "“Non-fused thiophene derivatives and their uses” (ENYO PHARMA, priority 2018, dated 2023)", "key": {"[1]": {"target": "T1, CISD1 Gene Product (mitoNEET) (Homo sapiens, UniProt Q9NZ45)", "T1 sequence (Q9NZ45 33-108 limits assumed)": "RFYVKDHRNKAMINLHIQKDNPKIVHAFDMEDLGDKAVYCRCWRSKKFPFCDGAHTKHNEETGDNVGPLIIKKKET", "test": "Stability of Fe-S cluster binding of purified NEET protein (absorbance 458 nm), mitoNEET", "format": "biochemical", "protocol": "(§1) The modulator effect on the NEET proteins encoded by human CISD1, CISD2, and CISD3 genes by the compounds of the invention has been tested and is reported below. Particularly, the biochemical function of the NEET proteins is measured by the stability of Fe—S cluster binding of the purified NEET proteins.\n(§2) The Fe—S cluster binding capacity of NEET proteins is known to be coordinated by four amino-acids in a stretch of 16 (three Cysteine and one Histidine). As the lability of the Fe—S cluster of NEET proteins is sensitive to the environment, cluster stability measurements are one of the measures of interactions of NEET proteins with small molecules and compounds. NEET protein/2Fe-2S cluster stability can be assessed by monitoring the decay in absorbance of its characteristic 458-nm peak (characteristic of the oxidized 2Fe-2S cluster) over time. Each NEET protein (mitoNEET, NAF-1 and Miner 2) was tested for its Fe—S binding in the absence or presence of a compound according to the invention (see table 3 below). […]\n(§3) At pH 6, all the three NEET proteins (mitoNEET, NAF-1 and Miner 2) have a characteristic rate of loss of the bound Fe—S cluster that can be measured by the decrease of absorbance at wavelength 458 nm over time, using a spectrophotometer. […]\n(§4) A reaction mix containing DMSO diluted in the Bis-Tris Buffer with or without a compound of the invention was prepared. […] The absorbance at wavelength 458 nm was taken at 5 minutes intervals at 37° C. with a spectrofluorimeter. […]\n(§5) In addition to time monitoring, residual bound Fe—S cluster to NEET protein was measured at the final point of the spectrometry assay for each Test sample and compared to the Control sample data (in parenthesis table 3). This residual binding is measured by the differential percentage between the absorbance 458 nm at time zero and the absorbance 458 nm at the end of the experiment (i.e. respectively 500 or 180 minutes as described hereabove), showing the percentage of NEET protein still able to bind a Fe—S cluster. […]"}, "[2]": {"target": "T2, CISD2 Gene Product (NAF-1) (Homo sapiens, UniProt Q8N5K1)", "T2 sequence (Q8N5K1 57-135 limits assumed)": "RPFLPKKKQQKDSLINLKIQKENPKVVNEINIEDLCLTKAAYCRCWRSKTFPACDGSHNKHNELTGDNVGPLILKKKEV", "test": "Stability of Fe-S cluster binding of purified NEET protein (absorbance 458 nm), NAF-1", "format": "biochemical", "protocol": "as §1, §2, §3, §4, §5"}, "[3]": {"target": "T3, CISD3 Gene Product (Miner2) (Homo sapiens, UniProt P0C7P0)", "T3 sequence (P0C7P0 15-127)": "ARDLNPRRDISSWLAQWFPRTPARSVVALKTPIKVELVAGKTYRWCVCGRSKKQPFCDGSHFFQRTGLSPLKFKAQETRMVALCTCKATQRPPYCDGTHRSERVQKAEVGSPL", "test": "Stability of Fe-S cluster binding of purified NEET protein (absorbance 458 nm), Miner2", "format": "biochemical", "protocol": "as §1, §2, §3, §4, §5"}, "[4]": {"tested_on": "diabetic mice model", "test": "HbA1c in diabetic mice model (db/db)", "format": "in vivo", "conditions": "PO 7 or 20 mg/kg BID or 40 mg/kg QD, 28 days of dosing, FIG. 1", "protocol": "Compound #16 has been tested on a diabetic mice model. […] Therefore, this compound can be useful for treating diabetes.\nMale db/db (BKS.Cg-m 1/1 Leprdb/J) mice aged 6 weeks at the time of arrival were obtained from Janvier (France) and acclimatized to their new environment. Animals were housed in groups of 2 in a light, temperature and humidity-controlled room (a 12-hour light/dark cycle, with lights off at 4 PM; 23+/−1° C.; 50% relative humidity). All animals had free access to standard Purina 5008 chow (LabDiet) and domestic-quality tap water.\nThe study was initiated in mice aged 8 weeks. Three days before first dosing, a blood sample was collected for determination of baseline blood glucose and hemoglobin A1c (HbA1c) levels. Based on these baseline HbA1c and fed blood glucose levels, mice were stratified into treatment groups (n=10) receiving vehicle (CMC (1.5% W/V) Sigma (ref.C9481), Tween 80 (0.25% V/V) Sigma (ref.59924) in water) or orally administered Compound #16 as follows: • 7 mg/kg, PO BID (twice a day) • 20 mg/kg, PO BID (twice a day) • 40 mg/kg PO QD (Once a day)\nThroughout the experimental period, body weight and food and water intake were measured daily in the morning.\nAnimals were terminated after a total of 28 days of dosing. […]"}}}
{"smiles": "O=C(Nc1scc(C2CCc3ccccc3C2)c1C(=O)O)c1ccccc1", "note": "(stereo not shown) [#16]", "values": [{"measurement": "Time (in minutes) to achieve 50% loss of bound cluster (Absorbance 458 nm)", "setting": "[1]; mitoNEET 20 μM, compound 60 μM, pH 6, 37° C., vehicle control 80", "result": "35 (80) minutes"}, {"measurement": "Residual cluster bound at end of experiment (Percentage Absorbance 458 nm at time zero)", "setting": "[1]; mitoNEET, end of experiment 180 minutes, compound 60 μM, pH 6, vehicle control 16%", "result": "0% (16%)"}, {"measurement": "Stabiliser or destabiliser of NEET protein/Fe-S cluster binding", "setting": "[1]; mitoNEET, destabiliser = time to 50% cluster loss decreased by more than 25% vs control", "result": "destabilisers"}, {"measurement": "Time (in minutes) to achieve 50% loss of bound cluster (Absorbance 458 nm)", "setting": "[2]; NAF-1 20 μM, compound 60 μM, pH 6, 37° C., vehicle control 310", "result": "35 (310) minutes"}, {"measurement": "Residual cluster bound at end of experiment (Percentage Absorbance 458 nm at time zero)", "setting": "[2]; NAF-1, end of experiment 500 minutes, compound 60 μM, pH 6, vehicle control 3%", "result": "4% (3%)"}, {"measurement": "Stabiliser or destabiliser of NEET protein/Fe-S cluster binding", "setting": "[2]; NAF-1, destabiliser = time to 50% cluster loss decreased by more than 25% vs control", "result": "destabilisers"}, {"measurement": "Residual cluster bound at end of experiment (Percentage Absorbance 458 nm at time zero)", "setting": "[3]; CISD3 Gene Product, end of experiment 180 minutes, compound 60 μM, pH 6, vehicle control 11%", "result": "11% (11%)"}, {"measurement": "Time (in minutes) to achieve 50% loss of bound cluster (Absorbance 458 nm)", "setting": "[3]; Miner2 20 μM, compound 60 μM, pH 6, 37° C., vehicle control 60", "result": "35 (60) minutes"}, {"measurement": "Stabiliser or destabiliser of NEET protein/Fe-S cluster binding", "setting": "[3]; Miner2, destabiliser = time to 50% cluster loss decreased by more than 25% vs control", "result": "destabilisers"}, {"measurement": "Change of glycated hemoglobin, HbA1C", "setting": "[4]", "result": "capable of reducing glycated hemoglobin"}]}
